Experimental data taken from patent US20040024024A1, “Aromatic sulfone hydroxamates and their use as protease inhibitors” (priority 2001, published 2004).

Experiments:
[1] = target: T1, Human recombinant MMP-13 (Homo sapiens, UniProt P45452); experiment: In vitro MMP inhibition, IC50 determination (fluorogenic substrate I); type: biochemical
T1 construct: made in house; host or cells: baculovirus / insect cells
How it was run: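 Fluorescence at 415 nm (excitation 328 nm) reports Gly-Leu cleavage of 4 μM quenched methoxycoumarin peptide substrate I. Human recombinant MMP-13, activated by trypsin or APMA, was incubated at room temperature with varied inhibitor concentrations in pH 7.5 Tris/NaCl/CaCl2 buffer; IC50 derived from reduced fluorescence.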

[2] = target: T2, Human recombinant MMP-2 (Homo sapiens, UniProt P08253); experiment: as above; type: biochemical
T2 construct: made in house; host or cells: MMP-2-transfected p2AHT2 cells
T2 sequence (P08253 110-660): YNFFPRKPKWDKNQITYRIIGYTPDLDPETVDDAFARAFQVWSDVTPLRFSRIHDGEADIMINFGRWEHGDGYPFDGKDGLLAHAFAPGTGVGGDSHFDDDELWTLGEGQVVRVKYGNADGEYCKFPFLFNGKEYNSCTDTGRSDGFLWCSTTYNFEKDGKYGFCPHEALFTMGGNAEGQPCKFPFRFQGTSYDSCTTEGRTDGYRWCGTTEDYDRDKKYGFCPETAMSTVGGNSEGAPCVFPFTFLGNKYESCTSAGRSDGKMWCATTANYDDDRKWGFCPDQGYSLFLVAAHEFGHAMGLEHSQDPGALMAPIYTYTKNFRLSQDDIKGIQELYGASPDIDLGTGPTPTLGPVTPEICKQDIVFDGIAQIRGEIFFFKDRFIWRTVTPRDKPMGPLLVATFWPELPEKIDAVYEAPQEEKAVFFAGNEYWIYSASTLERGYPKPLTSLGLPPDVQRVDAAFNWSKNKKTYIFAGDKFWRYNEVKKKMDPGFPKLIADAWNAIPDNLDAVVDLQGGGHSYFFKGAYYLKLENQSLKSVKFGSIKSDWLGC
How it was run: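 IC50 was derived from the concentration-dependent fall in fluorescence (ex 328, em 415 nm) on Gly-Leu cleavage of 4 μM MCA/Dpa-quenched substrate I. Assays ran at room temperature in pH 7.5 Tris/NaCl/CaCl2/Brij buffer with MMP-2 activated by trypsin or APMA; inhibitors were diluted from 1% DMSO stocks.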

[3] = value outside parentheses (Ki in parenthesis)
[4] = substrate (I) 4 μM, room temperature, values not in parenthesis

Row | SMILES | IC50 [1, 3] [nM] | IC50 [2, 3] [nM] | also measured
1 | O=C(NO)C1(S(=O)(=O)c2ccc(OCCCc3cccc(-c4ccccn4)c3)cc2)CCOCC1 [Example 153] | – | – | IC50 ([1]; value outside parenthesis): 7.6 nM; IC50 ([2]; value outside parenthesis): 192 nM
2 | COCCN1CCC(C(=O)NO)(S(=O)(=O)c2ccc(OCCCn3nnc(-c4cc(F)ccc4C)n3)cc2)CC1 [Example 141] | – | – | IC50 ([1]; value outside parenthesis): 3.6 nM; IC50 ([2]; value outside parenthesis): 32.5 nM
3 | COc1ccc(OC)c(S(=O)(=O)N2CC(Oc3ccc(S(=O)(=O)C4(C(=O)NO)CCOCC4)cc3)C2)c1 [Example 484] | 12 | 640 | –
4 | O=C(NO)C1(S(=O)(=O)c2ccc(OCCCc3nc(-c4cc(C(F)(F)F)cc(C(F)(F)F)c4)no3)cc2)CCOCC1 [Example 216] | – | – | IC50 ([1]; value outside parenthesis): 51.2 nM; IC50 ([2]; value outside parenthesis): 1950 nM
5 | O=C(O)CCCOc1ccc(S(=O)(=O)C2(C(=O)NO)CCOCC2)cc1 [Example 273] | – | – | IC50 ([1]; value outside parenthesis): 304 nM; IC50 ([2]; value outside parenthesis): 1010 nM
6 | COc1ccc(C(=O)C(C#N)CCOc2ccc(S(=O)(=O)C3(C(=O)NO)CCOCC3)cc2)cc1 (stereo not shown) [Example 176] | – | – | IC50 ([1]; value outside parenthesis): 7.8 nM; IC50 ([2]; value outside parenthesis): 109 nM
7 | O=C(NCCCOc1ccc(S(=O)(=O)C2(C(=O)NO)CCOCC2)cc1)N1CCOCC1 [Example 497] | – | – | IC50 ([1]; value outside parentheses): 23.5 nM; IC50 ([2]; value outside parentheses): 1450 nM
8 | COc1ccc(S(=O)(=O)C[C@@H](C)COc2ccc(S(=O)(=O)C3(C(=O)NO)CCOCC3)cc2)cc1 [Example 431] | 4 | 115 | –
9 | COc1ccc(C(=O)NCCCCNc2ccc(S(=O)(=O)C3(C(=O)NO)CCOCC3)cc2)cc1 [Example 331] | 261 | 386 | –
10 | O=C(NO)C1(S(=O)(=O)c2ccc(OCCCc3nnc(-c4ccc5ccccc5c4)o3)cc2)CCOCC1 [Example 304] | 0.2 | 139 | –
11 | C[C@@H]1C(=O)N(CCCOc2ccc(S(=O)(=O)C3(C(=O)NO)CCOCC3)cc2)C(=O)N1c1ccc(OC(F)(F)F)cc1 [Example 136] | – | – | IC50 ([1]; value outside parenthesis): 4.4 nM; IC50 ([2]; value outside parenthesis): 229 nM
12 | O=C(c1ccc(OC(F)(F)F)cc1)N1CC[C@@H](Oc2ccc(S(=O)(=O)C3(C(=O)NO)CCOCC3)cc2)C1 [Example 423] | 1590 | 9000 | –
13 | O=C(NO)C1(S(=O)(=O)c2ccc(OCCCc3ccc4ccccc4c3)cc2)CCOCC1 [Example 36] | – | – | IC50 [1, 4]: 2.4 nM; IC50 [2, 4]: 95 nM
14 | CC(=O)c1cccc(CCCOc2ccc(S(=O)(=O)C3(C(=O)NO)CCOCC3)cc2)c1 [Example 586] | – | – | IC50 ([1]; value outside parentheses): 0.6 nM; IC50 ([2]; value outside parentheses): 10.1 nM
15 | O=C(NCCSc1ccc(S(=O)(=O)C2(C(=O)NO)CCOCC2)cc1)c1ccc(-c2ccc(O)cc2)cc1 [Example 605] | – | – | IC50 ([1]; value outside parentheses): 3.8 nM; IC50 ([2]; value outside parentheses): 44 nM
16 | COCCN1CCC(C(=O)NO)(S(=O)(=O)c2ccc(OCCCn3nnc(-c4ccc5c(c4)OCO5)n3)cc2)CC1 [Example 146] | – | – | IC50 ([1]; value outside parenthesis): 0.4 nM; IC50 ([2]; value outside parenthesis): 11.1 nM
17 | CN(C)c1cccc(CCCOc2ccc(S(=O)(=O)C3(C(=O)NO)CCN(C4CC4)CC3)cc2)c1 [Example 613] | – | – | IC50 ([1]; value outside parentheses): 6.6 nM; IC50 ([2]; value outside parentheses): 34.3 nM

Continued, in another order:

Row | IC50 [1, 3] [nM] | IC50 [2, 3] [nM] | SMILES | also measured
18 | 2.5 | 7.8 | COc1cc(SC)ccc1C(=O)NNC(=O)CCCOc1ccc(S(=O)(=O)C2(C(=O)NO)CCOCC2)cc1 [Example 314] | –
19 | 6.7 | 12.5 | O=C(CCCOc1ccc(S(=O)(=O)C2(C(=O)NO)CCOCC2)cc1)c1ccccc1-c1ccccc1 [Example 300] | –
20 | 6110 | 5860 | O=C(NO)C1(S(=O)(=O)c2ccc(OCCCN(c3nc4ccccc4s3)c3nc4ccccc4s3)cc2)CCOCC1 [Example 320] | –
21 | 5150 | > 10000 | COc1ccc(C(=O)N2CC[C@@H](Oc3ccc(S(=O)(=O)C4(C(=O)NO)CCOCC4)cc3)C2)cc1OC [Example 426] | –
22 | 8 | 61 | O=C(NO)C1(S(=O)(=O)c2ccc(OCCCCN3CCCc4ccccc43)cc2)CCOCC1 [Example 413] | –
23 | 40 | 3300 | COC(=O)c1ccccc1S(=O)(=O)N1CC(Oc2ccc(S(=O)(=O)C3(C(=O)NO)CCOCC3)cc2)C1 [Example 482] | –
24 | 4 | 4 | COc1ccc(C(=O)NCCCCOc2ccc(S(=O)(=O)C3(C(=O)NO)CCOCC3)cc2)cc1 [Example 396] | –
25 | 195 | 2700 | COc1ccc(SCC(C)(C)COc2ccc(S(=O)(=O)C3(C(=O)NO)CCOCC3)cc2)cc1 [Example 430] | –
26 | 8.6 | 103 | CON(C)C(=O)CCCCOc1ccc(S(=O)(=O)C2(C(=O)NO)CCOCC2)cc1 [Example 329] | –
